Results from PMC9246869, “Allosteric inhibition of PPM1D serine/threonine phosphatase via an altered conformational state” (Nature Communications, 2022).
“And” between values parts separate entries of the source, which are not always exact repeats. Equal values may be shown once.

Assays:
PPM1D1–420 [1] = target: T1, PPM1D1–420 (Homo sapiens, UniProt O15297); experiment: FDP (fluorescein diphosphate) enzymatic assay; format: biochemical; parameters: FDP assay rate (Fig 3B): unit not given here; conditions: for FDP assay rate (Fig 3B): triplicates; for FDP Assay, signal relative to 0 nM GSK (=100): PPM1D1-420, individual runs, listed as GSK
T1 construct: PPM1D1–420 was PCR-amplified from the synthesized gene with BsaI sites; His(6)-SUMO (N, cleaved yes); made in house; host or cells: E. coli BL21 (DE3)
T1 sequence (O15297 1-420): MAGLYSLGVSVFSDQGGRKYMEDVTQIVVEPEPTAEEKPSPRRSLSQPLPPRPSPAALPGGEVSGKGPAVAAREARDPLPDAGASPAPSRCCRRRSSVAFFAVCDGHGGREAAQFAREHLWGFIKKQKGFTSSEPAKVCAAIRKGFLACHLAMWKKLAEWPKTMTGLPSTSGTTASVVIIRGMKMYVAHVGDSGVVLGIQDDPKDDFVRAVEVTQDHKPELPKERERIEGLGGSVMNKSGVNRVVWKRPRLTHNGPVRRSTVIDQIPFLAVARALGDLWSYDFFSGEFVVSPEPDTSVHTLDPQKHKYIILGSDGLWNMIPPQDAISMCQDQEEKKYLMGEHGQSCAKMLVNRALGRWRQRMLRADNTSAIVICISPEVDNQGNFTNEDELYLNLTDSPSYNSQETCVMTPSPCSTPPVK
Description: The FDP assay was adapted from reported protocol with minor modifications. Fluorescein diphosphate tetra-ammonium salt (CAS 217305-49-2) was purchased from AAT Bioquest (Cat No.11600). The assay was carried out on a 384-well plate (Corning Cat No.3575) with assay buffer containing 50 mM Tris (pH 7.5), 50 mM NaCl, 30 mM MgCl2, 0.01% tween 20, and 2% DMSO. Reactions were initiated with the addition of FDP to a solution containing wild-type PPM1D or one of its variants, to a final concentration of 5 nM for PPM1D and 100 μM for FDP (or as indicated in Kcat/KM measurements). A fluorescent signal was detected on a Spectramax microplate reader (485/530 nm) for the next 15 min at room temperature with an interval for data collection of 45 s. For the IC50 measurement, the compound was pre-incubated with PPM1D for 1 h before addition of the substrate.

PPM1D1–420 [2] = target: T1, PPM1D1–420; experiment: Differential scanning fluorimetry (DSF); format: binding; parameters: key to DSF Trial 1 (Tm) / DSF Trial 2 (Tm) / DSF Trial 3 (Tm) / DSF average (Tm) / DSF melting temperature with GSK2830371 / DSF melting temperature with GSK2830371, Average: melting temperature Tm in °C
Description: The purified protein constructs were mixed in the assay buffer containing 25 mM HEPES pH 7.5, 10 mM MgCl2, 150 mM NaCl. The sample preparation for the DSF assay included incubating the protein constructs (final concentration 0.2–0.4 mg/mL) with either DMSO alone (control) or with 40 µM GSK2830371 for 30 min before the addition of the Sypro orange dye (final concentration 10×). The final reaction volume of 10 µL was pipetted into a 384 multi-well clear plate (Light Cycler 480), sealed using a foil and spun down at 1000 × g for 2 min. The fluorescence emission intensity of the Sypro Orange dye was monitored in a LightCycler-480 instrument by running the Protein Melt program. The program was run in a continuous acquisition mode from 25 °C to 95 °C with a ramp rate of 0.06 °C/s (with 10 acquisitions/°C). The data (first derivative of the fluorescence signal as a function of temperature) was analyzed using the LightCycler-480 software for measuring the Tm values with and without the compound. A separate control with buffer alone and buffer with compound was run in the same plate to subtract out the potential interactions of the buffer components and/or the compound with the dye.

PPM1D1–420 [3] = target: T1, PPM1D1–420; experiment: Sedimentation velocity analytical ultracentrifugation (SV-AUC); conditions: PPM1D1–420 15 µM with 3x compound, 2% DMSO
Description: AUC experiments were done using an Optima ultracentrifuge (Beckman Instruments). Proteins were dialyzed at 4 °C prior to each experiment in 20 mM HEPES (pH 7.4), 100 mM NaCl, 5 mM MgCl2, 0.1 mM TCEP. Sedimentation velocity (SV-AUC) experiments were conducted using an An50 Ti rotor at 50,000 rpm and 20 °C following temperature equilibration for 1 h prior to the start of the experiment. […] We, therefore, present these SV-AUC data as relative sedimenting populations with their experimentally observed S values. Absorbance data were collected at 280 nm. SedFIT was used to model the sedimentation coefficient distributions [c(s) analysis] for each experiment[38],[39]. Data were then refined using the c(s) with a conformational change model to better estimate the relative populations observed for PPM1D1–420. SedNTerp was used to calculate protein parameters. Images were generated using GUSSI[41].

[4] = source data Fig 3C, with GSK, in °C (unit assumed)

SMILES: Cc1ncc(Cl)cc1NCc1ccc(C(=O)N[C@@H](CC2CCCC2)C(=O)NC2CC2)s1 [GSK2830371]
- mode of inhibition (PPM1D1–420 [1]; Michaelis–Menten kinetics, FDP hydrolysis): noncompetitive inhibitor
- IC50 (PPM1D1–420 [1]; PPM1D1–420, compound pre-incubated 1 h): ~6 nM
- FDP assay rate (Fig 3B) (PPM1D1–420 [1]; [FDP] 25 uM, inhibitor 0.98 (unit not given)): 0.1081 and 0.1018 and 0.09496
- FDP assay rate (Fig 3B) (PPM1D1–420 [1]; [FDP] 25 uM, inhibitor 1.95 (unit not given)): 0.0895 and 0.07795 and 0.08008
- FDP assay rate (Fig 3B) (PPM1D1–420 [1]; [FDP] 25 uM, inhibitor 3.9 (unit not given)): 0.06795 and 0.05591 and 0.06219
- FDP assay rate (Fig 3B) (PPM1D1–420 [1]; [FDP] 25 uM, inhibitor 7.8 (unit not given)): 0.03815 and 0.02398 and 0.0308
- FDP assay rate (Fig 3B) (PPM1D1–420 [1]; [FDP] 25 uM, inhibitor 15.6 (unit not given)): 0.01708 and 0.01354 and 0.01271
- FDP assay rate (Fig 3B) (PPM1D1–420 [1]; [FDP] 50 uM, inhibitor 0.98 (unit not given)): 0.154 and 0.1613 and 0.1584
- FDP assay rate (Fig 3B) (PPM1D1–420 [1]; [FDP] 50 uM, inhibitor 1.95 (unit not given)): 0.1193 and 0.1343 and 0.126
- FDP assay rate (Fig 3B) (PPM1D1–420 [1]; [FDP] 50 uM, inhibitor 3.9 (unit not given)): 0.09839 and 0.1118 and 0.09908
- FDP assay rate (Fig 3B) (PPM1D1–420 [1]; [FDP] 50 uM, inhibitor 7.8 (unit not given)): 0.04672 and 0.06633 and 0.05157
- FDP assay rate (Fig 3B) (PPM1D1–420 [1]; [FDP] 50 uM, inhibitor 15.6 (unit not given)): 0.02583 and 0.03504 and 0.03088
- FDP assay rate (Fig 3B) (PPM1D1–420 [1]; [FDP] 100 uM, inhibitor 0.98 (unit not given)): 0.2227 and 0.2316 and 0.2315
- FDP assay rate (Fig 3B) (PPM1D1–420 [1]; [FDP] 100 uM, inhibitor 1.95 (unit not given)): 0.1741 and 0.1931 and 0.1914
- FDP assay rate (Fig 3B) (PPM1D1–420 [1]; [FDP] 100 uM, inhibitor 3.9 (unit not given)): 0.1254 and 0.1375 and 0.1433
- FDP assay rate (Fig 3B) (PPM1D1–420 [1]; [FDP] 100 uM, inhibitor 7.8 (unit not given)): 0.08834 and 0.102 and 0.1128
- FDP assay rate (Fig 3B) (PPM1D1–420 [1]; [FDP] 100 uM, inhibitor 15.6 (unit not given)): 0.04867 and 0.06283 and 0.04506
- FDP assay rate (Fig 3B) (PPM1D1–420 [1]; [FDP] 100 uM, inhibitor 31.3 (unit not given)): 0.02471 and 0.03171 and 0.02136
- FDP assay rate (Fig 3B) (PPM1D1–420 [1]; [FDP] 200 uM, inhibitor 0.98 (unit not given)): 0.2541 and 0.2837 and 0.2718
- FDP assay rate (Fig 3B) (PPM1D1–420 [1]; [FDP] 200 uM, inhibitor 1.95 (unit not given)): 0.1754 and 0.2253 and 0.2249
- FDP assay rate (Fig 3B) (PPM1D1–420 [1]; [FDP] 200 uM, inhibitor 3.9 (unit not given)): 0.1214 and 0.1628 and 0.1643
- FDP assay rate (Fig 3B) (PPM1D1–420 [1]; [FDP] 200 uM, inhibitor 7.8 (unit not given)): 0.119 and 0.111 and 0.098
- FDP assay rate (Fig 3B) (PPM1D1–420 [1]; [FDP] 200 uM, inhibitor 15.6 (unit not given)): 0.06395 and 0.07091 and 0.07759
- FDP assay rate (Fig 3B) (PPM1D1–420 [1]; [FDP] 200 uM, inhibitor 31.3 (unit not given)): 0.03445 and 0.04201 and 0.04948
- FDP assay rate (Fig 3B) (PPM1D1–420 [1]; [FDP] 200 uM, inhibitor 62.5 (unit not given)): 0.03178 and 0.03296 and 0.03025
- FDP assay rate (Fig 3B) (PPM1D1–420 [1]; [FDP] 400 uM, inhibitor 0.98 (unit not given)): 0.3661 and 0.3766 and 0.3211
- FDP assay rate (Fig 3B) (PPM1D1–420 [1]; [FDP] 400 uM, inhibitor 1.95 (unit not given)): 0.2969 and 0.3135 and 0.2543
- FDP assay rate (Fig 3B) (PPM1D1–420 [1]; [FDP] 400 uM, inhibitor 3.9 (unit not given)): 0.2182 and 0.2333 and 0.1765
- FDP assay rate (Fig 3B) (PPM1D1–420 [1]; [FDP] 400 uM, inhibitor 7.8 (unit not given)): 0.2094 and 0.221 and 0.1442
- FDP assay rate (Fig 3B) (PPM1D1–420 [1]; [FDP] 400 uM, inhibitor 15.6 (unit not given)): 0.1122 and 0.1116 and 0.1013
- FDP assay rate (Fig 3B) (PPM1D1–420 [1]; [FDP] 400 uM, inhibitor 31.3 (unit not given)): 0.06577 and 0.07799 and 0.08598
- FDP assay rate (Fig 3B) (PPM1D1–420 [1]; [FDP] 400 uM, inhibitor 62.5 (unit not given)): 0.04782 and 0.06273 and 0.0378
- FDP assay rate (Fig 3B) (PPM1D1–420 [1]; [FDP] 400 uM, inhibitor 125 (unit not given)): 0.03598 and 0.04023 and 0.04026
- FDP Assay, signal relative to 0 nM GSK (=100) (PPM1D1–420 [1]; [GSK] 0.292969 nM): 86.8743 and 86.4893
- FDP Assay, signal relative to 0 nM GSK (=100) (PPM1D1–420 [1]; [GSK] 0.585938 nM): 87.0301 and 86.6545
- FDP Assay, signal relative to 0 nM GSK (=100) (PPM1D1–420 [1]; [GSK] 1.17188 nM): 79.2709 and 79.2522
- FDP Assay, signal relative to 0 nM GSK (=100) (PPM1D1–420 [1]; [GSK] 2.34375 nM): 68.8335 and 60.4469
- FDP Assay, signal relative to 0 nM GSK (=100) (PPM1D1–420 [1]; [GSK] 4.6875 nM): 48.948 and 39.1972
- FDP Assay, signal relative to 0 nM GSK (=100) (PPM1D1–420 [1]; [GSK] 9.375 nM): 35.4075 and 36.7435
- FDP Assay, signal relative to 0 nM GSK (=100) (PPM1D1–420 [1]; [GSK] 18.75 nM): 24.9745 and 29.6638
- FDP Assay, signal relative to 0 nM GSK (=100) (PPM1D1–420 [1]; [GSK] 37.5 nM): 10.1395 and 7.848
- FDP Assay, signal relative to 0 nM GSK (=100) (PPM1D1–420 [1]; [GSK] 75 nM): 7.727 and 7.844
- FDP Assay, signal relative to 0 nM GSK (=100) (PPM1D1–420 [1]; [GSK] 150 nM): 2.646 and -0.6809
- FDP Assay, signal relative to 0 nM GSK (=100) (PPM1D1–420 [1]; [GSK] 300 nM): 0.03588 and 0.07574
- DSF melting temperature with GSK2830371, Average (PPM1D1–420 [2]; PPM1D 1-420, average of 4 trials, in °C (unit assumed)): 59.7917
- DSF melting temperature with GSK2830371 (PPM1D1–420 [2]; PPM1D 1-420, individual trials, in °C (unit assumed)): 59.846 and 59.6596 and 59.8596 and 59.8015
- ΔTm at 40 µM (PPM1D1–420 [2]; PPM1D1–420, 40 µM compound, read-out: thermal shift by DSF): ~8 °C
- DSF Trial 1 (melting temperature) (PPM1D1–420 [2]; Sup Fig 2D, protein with GSK vs WT (DMSO), trial 1): 59.84 ˚C
- DSF Trial 2 (melting temperature) (PPM1D1–420 [2]; Sup Fig 2D, protein with GSK vs WT (DMSO), trial 2): 59.65 ˚C
- DSF Trial 3 (melting temperature) (PPM1D1–420 [2]; Sup Fig 2D, protein with GSK vs WT (DMSO), trial 3): 59.85 ˚C
- DSF Average (melting temperature) (PPM1D1–420 [2]; Sup Fig 2D, protein with GSK, average of trials): 59.78 ˚C
- DSF average (Tm) (PPM1D1–420 [2]; source data Fig 3C, with GSK, column head empty, in °C (unit assumed)): 59.78
- DSF Trial 1 (Tm) (PPM1D1–420 [2]; [4]): 59.84
- DSF Trial 2 (Tm) (PPM1D1–420 [2]; [4]): 59.65
- DSF Trial 3 (Tm) (PPM1D1–420 [2]; [4]): 59.85
- sedimentation peak (SV-AUC) in presence of compound (PPM1D1–420 [3]): 2.69 S
